# Key:
# [1] = tested on: Candida glabrata (ATCC 36583); assay: Minimal growth inhibitory concentration by turbidity, Candida glabrata; type: cell-based; conditions: Candida glabrata ATCC 36583, fluid Sabouraud medium, 28 degree, turbidity two days after inoculation
# Protocol: (§1) Candida albicans was obtained from ATCC (ATCC 10231) and cultured in fluid Sabouraud medium at 37 degree. The turbidity was measured one day after the innoculation and treatment with CBP501 at 0.03, 0.1, 0.3, 1, 3, 10, 30, 100 μg/ml. Candida glabrata was obtained from ATCC (ATCC 36583) and cultured in fluid Sabouraud medium at 28 degree. The turbidity was measured two days after the innoculation and treatment with CBP501 at 0.03, 0.1, 0.3, 1, 3, 10, 30, 100 μg/ml. Cryptococcus neoformans was obtained from ATCC (ATCC 24067) and cultured in fluid Sabouraud medium at 37 degree. The turbidity was measured two days after the innoculation and treatment with CBP501 at 0.03, 0.1, 0.3, 1, 3, 10, 30, 100 μg/ml. Trichophyton mentagroohytes was obtained from ATCC (ATCC 9533) and cultured in potato dextrose broth at 28 degree. The turbidity was measured three days after the innoculation and treatment with CBP501 at 0.03, 0.1, 0.3, 1, 3, 10, 30, 100 μg/ml. Minimal growth inhibitory concentrations were determined as the concentration of minimal CBP501 where the turbidity was not increased (Table 2).
# [2] = tested on: Candida albicans (ATCC 10231); assay: Minimal growth inhibitory concentration by turbidity, Candida albicans; type: cell-based; conditions: Candida albicans ATCC 10231, fluid Sabouraud medium, 37 degree, turbidity one day after inoculation
# Protocol: as §1
# ATM = molecular target: T1, ATM (Homo sapiens, UniProt Q13315); assay: In vitro phosphorylation inhibition, ATM (ELISA); type: biochemical; conditions: CBP501 0.5, 5, 50 uM, 30° C., compared to cyclin-dependent kinases, PKA and PKC (FIG. 1)
# T1 construct: ATM and ATR: Full length recombinant human, 293T cells; host or cells: 293T cells
# T1 sequence (Q13315 whole entry): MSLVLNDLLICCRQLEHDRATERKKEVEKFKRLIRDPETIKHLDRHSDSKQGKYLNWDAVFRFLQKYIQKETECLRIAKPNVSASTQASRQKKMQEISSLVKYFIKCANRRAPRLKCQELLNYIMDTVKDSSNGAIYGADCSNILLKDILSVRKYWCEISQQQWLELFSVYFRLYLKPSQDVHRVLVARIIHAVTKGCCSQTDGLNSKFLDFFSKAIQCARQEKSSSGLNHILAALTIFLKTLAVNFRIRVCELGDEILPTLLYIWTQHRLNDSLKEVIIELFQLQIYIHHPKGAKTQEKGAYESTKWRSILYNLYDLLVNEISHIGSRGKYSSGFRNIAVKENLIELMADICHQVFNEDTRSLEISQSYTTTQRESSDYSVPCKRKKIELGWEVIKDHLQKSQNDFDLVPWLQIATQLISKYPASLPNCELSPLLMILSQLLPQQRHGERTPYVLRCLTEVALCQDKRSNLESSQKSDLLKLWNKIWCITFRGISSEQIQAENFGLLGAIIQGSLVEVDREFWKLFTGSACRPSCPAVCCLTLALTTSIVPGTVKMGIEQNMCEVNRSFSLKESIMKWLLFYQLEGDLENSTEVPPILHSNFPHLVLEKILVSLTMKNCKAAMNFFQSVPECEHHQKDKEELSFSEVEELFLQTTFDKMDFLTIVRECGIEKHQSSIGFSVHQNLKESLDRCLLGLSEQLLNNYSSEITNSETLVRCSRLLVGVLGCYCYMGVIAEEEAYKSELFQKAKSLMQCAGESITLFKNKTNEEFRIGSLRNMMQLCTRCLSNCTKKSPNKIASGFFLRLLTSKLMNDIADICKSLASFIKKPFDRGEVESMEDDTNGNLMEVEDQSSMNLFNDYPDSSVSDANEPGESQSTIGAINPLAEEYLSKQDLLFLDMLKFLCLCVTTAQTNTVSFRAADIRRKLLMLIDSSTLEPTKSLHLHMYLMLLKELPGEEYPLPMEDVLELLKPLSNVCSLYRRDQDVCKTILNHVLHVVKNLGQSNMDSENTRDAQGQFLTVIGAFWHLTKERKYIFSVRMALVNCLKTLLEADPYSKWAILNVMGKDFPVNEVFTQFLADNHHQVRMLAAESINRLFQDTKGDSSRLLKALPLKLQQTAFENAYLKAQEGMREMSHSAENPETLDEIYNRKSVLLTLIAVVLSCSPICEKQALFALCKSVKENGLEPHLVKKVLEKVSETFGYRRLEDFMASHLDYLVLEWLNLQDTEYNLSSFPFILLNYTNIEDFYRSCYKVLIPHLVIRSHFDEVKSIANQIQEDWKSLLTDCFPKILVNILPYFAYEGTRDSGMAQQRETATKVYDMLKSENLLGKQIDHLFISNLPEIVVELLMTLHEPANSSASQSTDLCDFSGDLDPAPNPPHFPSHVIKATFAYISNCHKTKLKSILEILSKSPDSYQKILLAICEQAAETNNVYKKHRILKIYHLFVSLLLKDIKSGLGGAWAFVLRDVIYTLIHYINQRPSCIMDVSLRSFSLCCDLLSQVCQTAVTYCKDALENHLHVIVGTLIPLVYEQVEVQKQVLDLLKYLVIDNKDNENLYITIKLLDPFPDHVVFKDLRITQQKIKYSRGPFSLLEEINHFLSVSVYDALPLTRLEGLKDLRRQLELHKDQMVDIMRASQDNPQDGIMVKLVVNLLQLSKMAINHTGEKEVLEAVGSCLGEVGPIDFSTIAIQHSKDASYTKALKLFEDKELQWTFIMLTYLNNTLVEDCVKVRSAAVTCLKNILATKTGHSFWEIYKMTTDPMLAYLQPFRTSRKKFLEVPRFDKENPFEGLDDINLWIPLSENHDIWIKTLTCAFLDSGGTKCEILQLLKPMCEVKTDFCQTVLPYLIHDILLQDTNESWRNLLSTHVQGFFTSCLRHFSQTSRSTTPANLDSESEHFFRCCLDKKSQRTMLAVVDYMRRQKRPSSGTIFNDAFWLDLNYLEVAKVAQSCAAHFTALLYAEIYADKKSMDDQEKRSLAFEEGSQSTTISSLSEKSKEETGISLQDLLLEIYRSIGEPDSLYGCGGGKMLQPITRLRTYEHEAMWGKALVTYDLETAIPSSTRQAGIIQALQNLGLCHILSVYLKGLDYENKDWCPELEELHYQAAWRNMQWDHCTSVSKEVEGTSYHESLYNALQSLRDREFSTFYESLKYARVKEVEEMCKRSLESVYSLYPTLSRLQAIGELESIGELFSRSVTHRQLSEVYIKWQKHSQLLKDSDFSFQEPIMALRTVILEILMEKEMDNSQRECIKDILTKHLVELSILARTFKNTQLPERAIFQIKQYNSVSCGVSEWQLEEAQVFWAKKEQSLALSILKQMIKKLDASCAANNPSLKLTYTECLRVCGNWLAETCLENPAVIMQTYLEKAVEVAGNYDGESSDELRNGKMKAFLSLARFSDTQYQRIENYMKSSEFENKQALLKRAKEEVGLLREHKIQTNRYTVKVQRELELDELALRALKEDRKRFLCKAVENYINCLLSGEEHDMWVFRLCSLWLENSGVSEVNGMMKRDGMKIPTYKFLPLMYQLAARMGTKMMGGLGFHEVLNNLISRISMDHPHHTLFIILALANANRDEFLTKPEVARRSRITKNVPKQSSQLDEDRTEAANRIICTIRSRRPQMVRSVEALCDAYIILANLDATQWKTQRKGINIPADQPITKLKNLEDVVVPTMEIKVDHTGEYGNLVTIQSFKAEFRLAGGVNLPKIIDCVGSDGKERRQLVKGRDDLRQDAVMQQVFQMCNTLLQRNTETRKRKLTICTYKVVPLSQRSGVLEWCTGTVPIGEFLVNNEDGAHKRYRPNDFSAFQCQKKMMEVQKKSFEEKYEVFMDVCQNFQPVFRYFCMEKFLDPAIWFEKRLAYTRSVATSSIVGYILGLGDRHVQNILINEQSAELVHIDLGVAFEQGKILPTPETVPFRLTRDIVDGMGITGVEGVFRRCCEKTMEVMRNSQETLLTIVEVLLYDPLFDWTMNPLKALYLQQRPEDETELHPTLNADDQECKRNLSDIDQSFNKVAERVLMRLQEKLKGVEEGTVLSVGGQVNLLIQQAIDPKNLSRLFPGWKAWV
# Protocol: (§2) Source of kinases, measurement method, substrate, first antibody, second antibody, reaction buffer, reaction volume, ATP concentration, and reaction time are as follows. ATM and ATR: Full length recombinant human, 293T cells, enzyme linked immunosorbent assay (ELISA), GST-p53 (aal -99), anti-p53-phosphorylated Serl 5, Horse radish peroxidase (HRP)-labeled anti-rabbit IgG, 1×Mg/Mn kinase buffer (20 mM Hepes-KOH (pH7.5), 1 mM DTT, 80 ug/ml BSA, 10 mM MgCl2, 10 mM MnCl2), 50 ul, 100 uM, and 60 min. Chk1, Chk2 and c-Tak1: Full length recombinant human from SF-9 cells for Chk1, Full length recombinant human from E. Coli for Chk2 and Full length recombinant human from SF-9 cells for c-Tak1, respectively, ELISA, GST-Cdc25C (aa167–267), anti-Cdc25C-phosphorylated Ser216, HRP-labelled anti-mouse IgG, 1×Mg kinase buffer (20 mM Hepes-KOH (pH7.5), 1 mM DTT, 80 ug/ml BSA, 10 mM MgCl2), 50 ul, 50 uM, and 60 min. PLK-1: Human full length GST fusion, E. Coli, ELISA, GST fusion protein Y, Anti-phosphorylated Ser/Thr monoclonal, HRP-labelled anti-mousr IgG, 1×Mg kinase buffer, 30 ul, 50 uM, and 60 min. […]
# (§3) All incubations were at 30° C. […] The phosphorylated substrate was detected with either ELISA or RIA as described above. […] The quantity of phosphorylated substrate for each kinase reaction without CBP501 was nominated as 100%.
# Wee1 = molecular target: T2, Wee1 (Homo sapiens, UniProt P30291); assay: In vitro phosphorylation inhibition, Wee1 (ELISA); type: biochemical; conditions: CBP501 0.5, 5, 50 uM, 30° C., compared to cyclin-dependent kinases, PKA and PKC (FIG. 1)
# T2 construct: Weel: Human fulllength recombinant with GST fusion, E. Coli; GST; host or cells: E. coli
# T2 sequence (P30291 whole entry, the tested form may be a part): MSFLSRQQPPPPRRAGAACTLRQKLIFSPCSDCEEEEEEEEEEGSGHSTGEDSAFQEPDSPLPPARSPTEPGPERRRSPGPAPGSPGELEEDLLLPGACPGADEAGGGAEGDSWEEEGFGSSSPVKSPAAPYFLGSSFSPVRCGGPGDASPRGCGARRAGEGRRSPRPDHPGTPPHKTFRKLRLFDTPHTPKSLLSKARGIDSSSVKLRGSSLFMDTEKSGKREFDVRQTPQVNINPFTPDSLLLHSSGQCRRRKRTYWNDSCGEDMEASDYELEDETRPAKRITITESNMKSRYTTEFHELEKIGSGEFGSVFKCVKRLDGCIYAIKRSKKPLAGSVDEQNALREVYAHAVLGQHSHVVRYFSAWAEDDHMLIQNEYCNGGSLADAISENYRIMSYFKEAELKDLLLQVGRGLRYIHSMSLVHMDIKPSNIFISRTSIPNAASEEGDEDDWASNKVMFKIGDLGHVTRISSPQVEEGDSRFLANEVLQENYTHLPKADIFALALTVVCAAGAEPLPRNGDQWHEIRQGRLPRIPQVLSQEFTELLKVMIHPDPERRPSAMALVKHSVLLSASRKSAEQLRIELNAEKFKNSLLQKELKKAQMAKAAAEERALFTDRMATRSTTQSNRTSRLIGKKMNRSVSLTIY
# Protocol: as §2, §3
# yeast AH109 = assay: Growth inhibition of yeast AH109 on YAPD plate; type: cell-based, Saccaromices Cerevisie; conditions: 1 hr incubation at 30° in liquid YAPD, then 3 days on YAPD agarose plate (FIG. 2)
# Protocol: Cell culture Saccaromices Cerevisie AH109 was purchased from CLONTECH (Palo Alto, Calif.). YAPD plates were prepared using YPD agar purchased from CLONTECH and adenine purchased from Sigma-Aldrich Co. The cells were cultured at 30 degree.
# Logarithmically growing yeast AH109 in liquid medium (YAPD) was diluted to 1 to 10 with warm liquid YAPD medium with or without CBP501 and/or amphotericin B at the indicated doses. After 1 hr incubation at 30° whole solution was poured onto the YAPD agarose plate. The plate was then incubated 3 days and the samples were phtographed (FIG. 2).
# [3] = tested on: Cryptococcus neoformans (ATCC 24067); assay: Minimal growth inhibitory concentration by turbidity, Cryptococcus neoformans; type: cell-based; conditions: Cryptococcus neoformans ATCC 24067, fluid Sabouraud medium, 37 degree, turbidity two days after inoculation
# Protocol: as §1
# CHK1 = molecular target: T3, CHK1 (Homo sapiens, UniProt O14757); assay: In vitro phosphorylation inhibition, CHK1 (ELISA); type: biochemical; conditions: CBP501 0.5, 5, 50 uM, 30° C., compared to cyclin-dependent kinases, PKA and PKC (FIG. 1)
# T3 construct: Full length recombinant human from SF-9 cells for Chk1; host or cells: SF-9 cells
# T3 sequence (O14757 1-476): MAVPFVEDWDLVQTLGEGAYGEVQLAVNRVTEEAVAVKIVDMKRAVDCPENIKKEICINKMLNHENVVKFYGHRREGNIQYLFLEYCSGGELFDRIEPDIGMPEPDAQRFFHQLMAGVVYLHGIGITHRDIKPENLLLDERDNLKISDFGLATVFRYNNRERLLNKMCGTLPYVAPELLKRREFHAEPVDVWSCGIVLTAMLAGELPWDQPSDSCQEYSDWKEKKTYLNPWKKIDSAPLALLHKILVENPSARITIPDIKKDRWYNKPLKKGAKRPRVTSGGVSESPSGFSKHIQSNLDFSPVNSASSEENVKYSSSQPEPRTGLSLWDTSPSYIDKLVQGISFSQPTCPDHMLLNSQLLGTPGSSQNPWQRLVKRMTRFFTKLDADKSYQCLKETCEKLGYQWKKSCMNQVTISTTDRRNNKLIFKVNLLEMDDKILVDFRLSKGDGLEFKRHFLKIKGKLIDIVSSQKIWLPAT
# Protocol: as §2, §3
# CHK2 = molecular target: T4, CHK2 (Homo sapiens, UniProt O96017); assay: In vitro phosphorylation inhibition, CHK2 (ELISA); type: biochemical; conditions: CBP501 0.5, 5, 50 uM, 30° C., compared to cyclin-dependent kinases, PKA and PKC (FIG. 1)
# T4 construct: Full length recombinant human from E. Coli for Chk2; host or cells: E. coli
# T4 sequence (O96017 whole entry): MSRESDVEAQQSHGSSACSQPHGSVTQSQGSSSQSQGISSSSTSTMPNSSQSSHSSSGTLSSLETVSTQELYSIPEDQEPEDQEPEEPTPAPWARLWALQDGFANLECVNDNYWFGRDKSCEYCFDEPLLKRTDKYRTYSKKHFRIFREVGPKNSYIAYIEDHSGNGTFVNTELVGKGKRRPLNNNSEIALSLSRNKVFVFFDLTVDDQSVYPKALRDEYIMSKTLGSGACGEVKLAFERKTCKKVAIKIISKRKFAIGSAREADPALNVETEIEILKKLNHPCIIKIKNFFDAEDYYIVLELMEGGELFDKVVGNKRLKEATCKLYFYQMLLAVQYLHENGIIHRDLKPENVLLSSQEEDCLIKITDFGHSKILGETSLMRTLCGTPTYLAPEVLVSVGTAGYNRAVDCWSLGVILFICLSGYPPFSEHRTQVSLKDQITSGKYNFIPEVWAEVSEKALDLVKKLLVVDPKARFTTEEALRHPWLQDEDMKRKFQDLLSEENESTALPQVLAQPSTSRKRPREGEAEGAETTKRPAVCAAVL
# Protocol: as §2, §3
# [4] = tested on: Trichophyton mentagroohytes (ATCC 9533); assay: Minimal growth inhibitory concentration by turbidity, Trichophyton mentagroohytes; type: cell-based; conditions: Trichophyton mentagroohytes ATCC 9533, potato dextrose broth, 28 degree, turbidity three days after inoculation
# Protocol: as §1
# PLK1 = molecular target: T5, PLK1 (Homo sapiens, UniProt P53350); assay: In vitro phosphorylation inhibition, PLK1 (ELISA); type: biochemical; conditions: CBP501 0.5, 5, 50 uM, 30° C., compared to cyclin-dependent kinases, PKA and PKC (FIG. 1)
# T5 construct: PLK-1: Human full length GST fusion, E. Coli; GST; host or cells: E. coli
# T5 sequence (P53350 whole entry, the tested form may be a part): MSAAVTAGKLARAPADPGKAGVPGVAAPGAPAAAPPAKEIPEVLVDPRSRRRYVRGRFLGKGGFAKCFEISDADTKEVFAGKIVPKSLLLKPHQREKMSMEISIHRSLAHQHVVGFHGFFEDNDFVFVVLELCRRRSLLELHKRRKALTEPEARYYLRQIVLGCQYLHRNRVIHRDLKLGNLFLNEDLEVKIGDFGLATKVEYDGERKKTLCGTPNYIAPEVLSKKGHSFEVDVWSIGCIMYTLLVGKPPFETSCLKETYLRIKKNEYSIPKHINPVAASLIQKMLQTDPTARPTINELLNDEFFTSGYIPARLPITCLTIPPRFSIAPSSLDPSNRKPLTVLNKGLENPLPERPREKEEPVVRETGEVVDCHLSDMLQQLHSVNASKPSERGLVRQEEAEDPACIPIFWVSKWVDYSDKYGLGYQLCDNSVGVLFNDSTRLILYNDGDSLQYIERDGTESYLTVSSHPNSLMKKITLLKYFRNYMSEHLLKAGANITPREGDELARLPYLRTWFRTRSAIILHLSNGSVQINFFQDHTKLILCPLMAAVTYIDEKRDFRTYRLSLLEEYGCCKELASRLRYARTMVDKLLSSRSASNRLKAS
# Protocol: as §2, §3
# ATR = molecular target: T6, ATR (Homo sapiens, UniProt Q13535); assay: In vitro phosphorylation inhibition, ATR (ELISA); type: biochemical; conditions: CBP501 0.5, 5, 50 uM, 30° C., compared to cyclin-dependent kinases, PKA and PKC (FIG. 1)
# T6 construct: ATM and ATR: Full length recombinant human, 293T cells; host or cells: 293T cells
# Protocol: as §2, §3
substance,measurement,setting,value
"(d-Bpa)(d-Ser)(d-Trp)(d-Ser) (d-Phe2,3,4,5,6-F)(d-Cha)(d-Arg)(d-Arg)(d-Arg)(d-Gln)(d-Arg)(d-Arg) [CBP501]",MIC (minimul inhibitory concentration),[1],30 µg/mL
same,MIC (minimul inhibitory concentration),[2],100 µg/mL
same,inhibition of kinase activity (phosphorylation of substrate),ATM,strongly inhibited
same,inhibition of kinase activity (phosphorylation of substrate),Wee1,strongly inhibited
same,growth of yeast AH109 on YAPD plate,yeast AH109,growth inhibition
same,MIC (minimul inhibitory concentration),[3],1 µg/mL
same,inhibition of kinase activity (phosphorylation of substrate),CHK1,strongly inhibited
same,inhibition of kinase activity (phosphorylation of substrate),CHK2,strongly inhibited
same,MIC (minimul inhibitory concentration),[4],100 µg/mL
same,inhibition of kinase activity (phosphorylation of substrate),PLK1,strongly inhibited
same,inhibition of kinase activity (phosphorylation of substrate),ATR,strongly inhibited

# Reference: patent US7125842B2, “Anti-fungal compounds and methods of use” (CanBas Co. Ltd., priority 2003, dated 2006)
